Results published in patent US9738623B2, “Curcumin analogs” (The General Hospital Corporation, priority 2012, dated 2017).

Tests used:
[1] = biological target: T1, FAM-Aβ42 (Homo sapiens, UniProt P05067); experiment: SDS-PAGE of copper-induced crosslinking of FAM-Aβ42; type: biochemical; settings: for intensity of monomeric Aβ bands relative to non-treated group: 4 hours incubation with copper sulfate and vitamin C
T1 construct: a Aβ42 labeled with fluorescent dye (FAM) (FAM-Aβ42); purchased American Peptide Company
Procedure: (§1) Samples were separated on 4-20% gradient Tris-glycine mini gels (Invitrogen). For FAM-Aβ42 gels, the images were acquired on IVIS®Spectrum (Caliper, Perkin Elmer) with excitation=465 nm, and emission=520 nm. For native Aβ42 gels, the gel was transferred to a nitrocellulose membrane in a cooled transferring buffer and the membrane was blocked at room temperature for 2 hours. After blocking, the membrane was incubated in a solution of 6E10 anti-Aβ primary antibody (1:2000 dilution, Covance, Dedham, Mass.) at 4° C. overnight. After washing with TBS buffer, the membrane was incubated with the secondary antibody for 2 hours at room temperature. Western Breeze Chemiluminescent kit (Invitrogen) was used to visualize the bands. The images were acquired using IVIS®Spectrum (Caliper, Perkin Elmer) using bioluminescence imaging setting. SeeBlue®plus2 (Invitrogen)(4-250KD) was used as a molecular weight marker.
(§2) All the samples used for SDS-PAGE gel and Western blot were prepared using the same procedure as described below. A 5 μL HFIP (hexafluoroisopropanol) solution (25 μM) of native Aβ42 or FAM-Aβ42 was added to a 1.5 mL eppendorf tube. After evaporating the organic solvent under vacuum, a 5 μL at DMSO or DMSO solution of CRANAD-17 (100 μM) was added to the tube, followed by the addition of 15 μL of Vitamin C solution in PBS (33.3 μM) and 5 μL of copper sulfate solution in PBS (12.5 μM). The resulting mixture was incubated at 37° C. for 4 hours, and was then subjected to gel electrophoresis. For dose dependency study, 5 μL of DMSO solution of different CRANAD-17 concentrations (25, 125, 250 μM) was added to obtain CRANAD-17/Aβ42 ratio equals 1:1, 5:1, and 10:1.

[2] = biological target: T2, Aβ42 (Homo sapiens, UniProt P05067); experiment: Western blot of copper-induced crosslinking of native Aβ42; type: biochemical; settings: for attenuation of copper-induced crosslinking of native Aβ42: 4 hours incubation; for high molecular weight species on gel: copper treated
T2 construct: Synthetic amyloid-β peptide (1-40/42) was purchased from rPeptide; purchased rPeptide (Bogart, Ga.)
Procedure: as §1, §2
To this end, human Aβ42 was incubated with curcumin, CRANAD-3 and CRANAD-17 under the same conditions as above.

[3] = biological target: T3, [H13R]Aβ40 (Homo sapiens, UniProt P05067, H684R); experiment: Fluorescence spectra recording with [H13R]Aβ40; type: binding
T3 construct: [H13R]Aβ40 monomers; purchased American Peptide Company
Procedure: (§3) The procedure described below was used for all experiments. To test the interactions of CRANAD-17 with Aβ species including Aβ42 monomers, Aβ40 monomers and [H13R]Aβ40 monomers, we utilize the following protocol. Step 1: 1.0 mL of PBS buffer was added to a quartz curvet as a blank control and its fluorescence was recorded with the same parameters as for CRANAD-17; Step 2: fluorescence of a CRANAD-17 solution (1 mL, 500 nM) was recorded with excitation at 480 nm and emission from 500 nm to 900 nm; Step 3: to the above CRANAD-17 solution, 10 μL of Aβ species (25 μM) was added to make the final Aβ species concentration of 250 nM, and the fluorescence spectrum from this solution was recorded. The final spectra from steps 2 and 3 were corrected using the blank control from step 1.
Conceivably, it is possible that the pyridyl ring on the other end of CRANAD-3 has a specific interaction with H13 and H14 of Aβ, which have aromatic imidazolium rings and are at the equal distance from K16 as VFF. To this end, the fluorescence intensities of CRANAD-3 with Aβ and H13R substituted Aβ ([H13R]Aβ), in which H13 is replaced by arginine (R) was compared.

[4] = system: APP/PS1 mice; experiment: In vivo six-month treatment of APP/PS1 mice (NIR imaging, ELISA, plaque counting); settings: 4 mg/kg i.p. twice a week, 6-month treatment
Procedure: Transgenic APP-PS1 mice and age-matched wild type mice were purchased from Jackson Laboratory. In vivo NIR imaging was recorded using the IVIS° Spectrum.
Ten APP/PS 1 mice (4-month) were divided into 2 groups (n=5/group), and one group was i.p. injected with 100 microliter of CRANAD-17 (4 mg/kg, formulated withl0% cremophor, 10% DMSO and 80% PBS) twice a week. After 6-month treatment, the two groups were subjected to NIR imaging with CRANAD-3 (ex=605, em=680 nm), and then were sacrificed. The brain of each mouse was taken, and dissected in two halves. One half brain was subjected to extraction and then to ELISA analysis. The other half brain was dissected into 25 micron slices, and then the slices were stained with Thioflavin S. Eight slices from hippocampus area of each mouse were subjected to amyloid beta plaque counting by ImageJ.

[5] = biological target: T2, Aβ42; experiment: TEM measurement of Aβ42 aggregation; type: biochemical; settings: 1.0 μM compound, 250 nM Aβ42, 37° C., 24 hours
Procedure: A 250 nM of Aβ42 in PBS solution was placed was at 37° C. for 24 hours. Next, 5 μL of this solution was dropped onto a Formvar coated TEM grid, followed by the addition of 2 μL of PTA contrast solution. After one minute, the liquid on the grid was carefully dried with a corner of a filter paper, and the resulting grid was further dried in the air for 2-5 minute. The TEM images were taken with JEOL 1011 electron microscope. Similar procedure was used for the incubated solution of CRANAD-l7 (1.0 μM) and Aβ42 (250 nM).

[6] = biological target: T2, Aβ42; experiment: Thioflavin T test of Aβ42 aggregation; type: biochemical; settings: 10 μM compound, 37° C., 24 hours
Procedure: A 2.5 μM of Aβ42 solution in PBS was placed at 37° C. for 24 hours., and 10 μL of this solution was added to 1.0 ml PBS solution. The resulting solution was and then subjected to fluorescence spectrum recording with excitation=440 nm, and emission=470-800 nm (baseline recording). To this solution, 10 μL of thioflavin T (2.5 μM in PBS) was added and the spectrum was recorded. The quantification was conducted at λem=500 nm for Thioflavin T reading by subtracting the baseline reading. For CRANAD-17 (10 μM) incubation, the quantification was conducted by subtracting the readings at baseline and CRANAD-17 at λem=500 nm.

[7] = biological target: T4, human Aβ40 (Homo sapiens, UniProt P05067); experiment: Fluorescence spectra recording with Aβ40; type: binding; settings: 500 nM compound, 250 nM Aβ
T4 construct: Synthetic amyloid-β peptide (1-40/42) was purchased from rPeptide; purchased rPeptide (Bogart, Ga.)
Procedure: as §3

Molecule	attenuation of copper-induced crosslinking ([1]; FAM-Aβ42/compound 1:1, 1:5, 1:10)	intensity of monomeric Aβ bands relative to non-treated group [1]	attenuation of copper-induced crosslinking of native Aβ42 ([2]; Western blot)	high molecular weight species on gel [2]	blue-shift with [H13R]Aβ [3]	fluorescence intensity with [H13R]Aβ compared to native Aβ [3]	ELISA analysis of brain extraction, reduction [4]	lower NIR signals than non-treated group (imaging with CRANAD-3) [4]	plaque counting, reduction ([4]; hippocampus slices, Thioflavin S)	visible fibrils by TEM compared to control (Aβ42 treated with copper only) [5]	Thioflavin T fluorescence signal [6]	fluorescence property changes upon mixing with Aβ [7]	attenuation effect compared to curcumin and CRANAD-3 ([2]; Western blot)
c1ccc(-n2ccnc2)cc1 [4-(1H-imidazol-1-yl)benzene]	relatively small compared to CRANAD-17	–	–	–	–	–	–	–	–	–	–	–	–
COc1cc(/C=C/C(=O)CC(=O)/C=C/c2ccc(O)c(OC)c2)ccc1O [curcumin]	–	1.07 fold	could attenuate crosslinking	no significant amount of high molecular weight species	–	–	–	–	–	–	–	–	–
CRANAD-17	–	1.92 fold	could attenuate crosslinking	a certain amount of high molecular weight oligomeric species	no significant blue-shift	significantly lower fluorescence intensity	36%	25%	78%	less visible fibrils	lower fluorescence signal	intensity increase and blue-shift	significantly higher attenuation effect
